# According to the supplement of paper PMC10307832:
# Assays:
# Experiment in all cases: relative viability (nuclei count vs DMSO), 5 days (fraction); higher = more cells survive
# Venetoclax + OSI-027 = compound: CC1(C)CCC(CN2CCN(c3ccc(C(=O)NS(=O)(=O)c4ccc(NCC5CCOCC5)c([N+](=O)[O-])c4)c(Oc4cnc5[nH]ccc5c4)c3)CC2)=C(c2ccc(Cl)cc2)C1 [Venetoclax] + COc1cccc2cc(-c3nc([C@H]4CC[C@H](C(=O)O)CC4)n4ncnc(N)c34)[nH]c12 [OSI-027] (partner 0.5 µM)
# Method in brief: (§1)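 Lung cancer cell lines in 1536-well plates got either a single drug or a fixed anchor-drug dose together with five library-drug doses (not always all listed) in √10 steps, by pin tool, on the day after seeding. Nuclei were counted after 5 days, and relative viability is the treated-to-vehicle ratio of nuclei counts. Values are medians of duplicate plates.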
# Venetoclax + Vorinostat = compound: CC1(C)CCC(CN2CCN(c3ccc(C(=O)NS(=O)(=O)c4ccc(NCC5CCOCC5)c([N+](=O)[O-])c4)c(Oc4cnc5[nH]ccc5c4)c3)CC2)=C(c2ccc(Cl)cc2)C1 [Venetoclax] + O=C(CCCCCCC(=O)Nc1ccccc1)NO [Vorinostat] (partner 1 µM)
# Method in brief: as §1
# Selumetinib + Navitoclax = compound: Cn1cnc2c(F)c(Nc3ccc(Br)cc3Cl)c(C(=O)NOCCO)cc21 [Selumetinib] + CC1(C)CCC(c2ccc(Cl)cc2)=C(CN2CCN(c3ccc(C(=O)NS(=O)(=O)c4ccc(N[C@H](CCN5CCOCC5)CSc5ccccc5)c(S(=O)(=O)C(F)(F)F)c4)cc3)CC2)C1 [Navitoclax] (partner 0.5 µM)
# Method in brief: as §1
# Selumetinib + Linsitinib = compound: Cn1cnc2c(F)c(Nc3ccc(Br)cc3Cl)c(C(=O)NOCCO)cc21 [Selumetinib] + C[C@]1(O)C[C@@H](c2nc(-c3ccc4ccc(-c5ccccc5)nc4c3)c3c(N)nccn32)C1 [Linsitinib] (partner 1 µM)
# Method in brief: as §1
Cell Line,relative viability (Venetoclax + OSI-027; first compound 0.01 µM),relative viability (Venetoclax + OSI-027; first compound 0.03162 µM),relative viability (Venetoclax + OSI-027; first compound 0.1 µM),relative viability (Venetoclax + OSI-027; first compound 0.3162 µM),relative viability (Venetoclax + OSI-027; first compound 1 µM),relative viability (Venetoclax + Vorinostat; first compound 0.01 µM),relative viability (Venetoclax + Vorinostat; first compound 0.03162 µM),relative viability (Venetoclax + Vorinostat; first compound 0.1 µM),relative viability (Venetoclax + Vorinostat; first compound 0.3162 µM),relative viability (Venetoclax + Vorinostat; first compound 1 µM),relative viability (Selumetinib + Navitoclax; first compound 0.02 µM),relative viability (Selumetinib + Navitoclax; first compound 0.06325 µM),relative viability (Selumetinib + Navitoclax; first compound 0.2 µM),relative viability (Selumetinib + Navitoclax; first compound 0.6325 µM),relative viability (Selumetinib + Linsitinib; first compound 0.02 µM),relative viability (Selumetinib + Linsitinib; first compound 0.06325 µM),relative viability (Selumetinib + Linsitinib; first compound 0.2 µM),relative viability (Selumetinib + Linsitinib; first compound 0.6325 µM)
201T,0.728,0.724,0.687,0.774,0.628,0.858,1.02,0.917,0.975,0.947,1.17,1.14,1.17,1.15,0.987,0.978,0.949,0.932
A549,–,–,–,–,–,–,–,–,–,–,0.945,0.904,0.734,0.596,0.489,0.436,0.363,0.349
A-427,0.449,0.572,0.434,0.487,0.46,0.834,0.863,0.857,0.849,0.879,1.02,0.868,0.76,0.68,1.16,1.09,1.02,0.925
ABC-1,0.569,0.536,0.444,0.488,0.442,1.04,1.24,1.13,1.32,0.939,–,–,–,–,0.794,0.678,0.607,0.614
BEN,0.291,0.295,0.289,0.281,0.281,0.599,0.603,0.494,0.556,0.523,0.0655,0.0564,0.0657,0.0674,0.879,0.898,0.745,0.8
CAL-12T,0.641,0.693,0.639,0.549,0.413,0.684,0.782,0.683,0.865,0.56,1.28,1.36,0.986,0.921,0.821,0.762,0.663,0.588
COR-L23,0.661,0.839,0.713,0.687,0.696,0.428,0.439,0.39,0.433,0.392,1.05,0.926,1.06,1.04,0.945,0.88,0.864,0.787
COR-L 105,0.71,0.737,0.552,0.707,0.73,0.789,0.763,0.866,0.899,0.818,0.78,0.574,0.642,0.451,1,0.828,0.606,0.623
Calu-6,–,–,–,–,–,–,–,–,–,–,0.727,0.513,0.355,0.234,1.03,0.77,0.522,0.362
ChaGo-K-1,0.716,0.634,0.516,0.552,0.479,0.879,0.759,0.546,0.694,0.737,0.878,0.956,0.911,1.23,–,–,–,–
EBC-1,–,–,–,–,–,–,–,–,–,–,0.225,0.19,0.193,0.138,0.917,0.844,0.933,0.518
EKVX,0.668,0.731,0.646,0.76,0.63,0.618,0.838,0.602,0.771,0.592,0.689,0.82,0.559,0.487,0.864,0.912,0.749,0.711
EMC-BAC-2,0.405,0.441,0.371,0.403,0.353,0.465,0.783,0.352,0.672,0.417,0.964,0.989,1.07,1.06,0.732,0.668,0.707,0.743
EPLC-272H,0.284,0.294,0.281,0.292,0.3,0.495,0.422,0.579,0.469,0.494,0.791,0.942,0.76,0.843,0.968,1.09,0.848,1.06
H3255,0.577,0.541,0.493,0.506,0.668,0.782,0.899,0.897,0.777,0.733,0.428,0.487,0.342,0.436,0.974,0.899,0.918,0.825
HARA,0.427,0.571,0.452,0.427,0.362,0.568,0.605,0.554,0.512,0.4,1.17,1.13,1.09,1.1,0.916,0.837,0.84,0.334
HCC-15,0.653,0.67,0.721,0.658,0.549,0.8,0.799,0.812,0.841,0.853,0.507,0.397,0.32,0.199,0.674,0.502,0.351,0.232
HCC-44,0.609,0.652,0.539,0.589,0.477,1.05,1.14,1.08,1.1,1,0.986,0.847,0.794,0.836,0.701,0.639,0.539,0.575
HCC-78,0.4,0.387,0.35,0.347,0.371,0.448,0.446,0.373,0.438,0.424,0.77,0.758,0.69,0.738,0.446,0.402,0.419,0.378
HCC-366,0.873,0.958,0.628,0.95,0.573,0.311,0.395,0.273,0.346,0.312,1.11,0.954,0.917,0.757,0.525,0.406,0.249,0.229
HCC-827,0.799,0.839,0.776,0.733,0.755,0.848,0.958,0.83,0.892,0.755,0.978,1.04,1.03,1.04,0.848,0.929,0.931,0.894

Cell Line,relative viability (Venetoclax + OSI-027; first compound 0.01 µM),relative viability (Venetoclax + OSI-027; first compound 0.03162 µM),relative viability (Venetoclax + OSI-027; first compound 0.1 µM),relative viability (Venetoclax + OSI-027; first compound 0.3162 µM),relative viability (Venetoclax + OSI-027; first compound 1 µM),relative viability (Venetoclax + Vorinostat; first compound 0.01 µM),relative viability (Venetoclax + Vorinostat; first compound 0.03162 µM),relative viability (Venetoclax + Vorinostat; first compound 0.1 µM),relative viability (Venetoclax + Vorinostat; first compound 0.3162 µM),relative viability (Venetoclax + Vorinostat; first compound 1 µM),relative viability (Selumetinib + Navitoclax; first compound 0.02 µM),relative viability (Selumetinib + Navitoclax; first compound 0.06325 µM),relative viability (Selumetinib + Navitoclax; first compound 0.2 µM),relative viability (Selumetinib + Navitoclax; first compound 0.6325 µM),relative viability (Selumetinib + Linsitinib; first compound 0.02 µM),relative viability (Selumetinib + Linsitinib; first compound 0.06325 µM),relative viability (Selumetinib + Linsitinib; first compound 0.2 µM),relative viability (Selumetinib + Linsitinib; first compound 0.6325 µM)
HOP-62,0.879,0.861,0.842,0.838,0.78,0.578,0.572,0.552,0.667,0.568,1.01,0.997,0.929,0.517,0.98,1.05,0.93,0.469
IA-LM,–,–,–,–,–,0.673,1.01,0.8,0.958,1,0.566,0.398,0.284,0.315,0.406,0.296,0.295,0.254
LC-2-ad,1.01,0.934,0.72,0.905,0.845,0.721,0.729,0.641,0.69,0.686,0.4,0.359,0.442,0.46,0.824,0.801,0.653,0.9
LCLC-97TM1,0.519,0.704,0.556,0.478,0.465,0.453,0.892,0.443,0.635,0.667,0.497,0.606,0.368,0.309,0.227,0.193,0.207,0.2
LCLC-103H,0.5,0.492,0.502,0.404,0.404,0.866,0.92,0.648,0.825,0.737,–,–,–,–,1.04,0.952,0.804,0.968
LK-2,0.317,0.204,0.22,0.22,0.161,0.214,0.38,0.304,0.278,0.248,0.88,0.896,0.838,1.06,0.466,0.551,0.587,0.312
LOU-NH91,0.674,0.762,0.726,0.755,0.673,0.868,1.05,0.916,1.03,0.874,0.631,0.607,0.514,0.556,0.773,0.846,0.783,0.727
NCI-H358,0.747,0.841,0.697,0.83,0.695,0.794,0.882,0.67,0.697,0.626,–,–,–,–,0.472,0.512,0.424,0.365
NCI-H522,0.631,0.759,0.684,0.824,0.6,1,0.849,0.96,0.839,0.896,–,–,–,–,–,–,–,–
NCI-H650,0.533,0.552,0.561,0.528,0.459,0.42,0.413,0.471,0.462,0.391,–,–,–,–,1.18,1.03,0.941,1.07
NCI-H661,0.682,0.789,0.705,0.681,0.617,0.741,0.804,0.692,0.893,0.722,–,–,–,–,0.614,0.455,0.469,0.457
NCI-H1299,–,–,–,–,–,–,–,–,–,–,1.02,1.09,1.05,0.899,0.996,0.833,0.88,0.677
NCI-H1563,0.836,0.776,0.747,0.773,0.707,–,–,–,–,–,–,–,–,–,1.15,1.2,1.11,1.11
NCI-H1623,0.419,0.424,0.414,0.444,0.424,–,–,–,–,–,–,–,–,–,–,–,–,–
NCI-H1648,0.287,0.24,0.313,0.265,0.256,–,0.397,0.494,0.451,0.477,–,–,–,–,–,–,–,–
NCI-H1650,0.531,0.856,0.606,0.783,0.529,0.618,0.606,0.567,0.553,0.527,1,0.893,0.904,1.01,–,–,–,–
NCI-H1703,–,–,–,–,–,–,–,–,–,–,1.12,0.875,1.29,1.1,0.75,0.637,0.67,0.824
NCI-H1792,0.695,0.751,0.603,0.638,0.721,–,–,–,–,–,0.741,0.641,0.522,0.533,0.442,0.475,0.361,0.251
NCI-H2170,0.597,0.802,0.552,0.713,0.633,0.685,0.763,0.682,0.804,0.742,0.581,0.561,0.514,0.464,–,–,–,–
NCI-H2342,0.767,0.708,0.554,0.715,0.665,0.667,0.823,0.739,0.683,0.802,–,–,–,–,–,–,–,–
SW 900,0.641,0.548,0.484,0.525,0.604,0.485,0.663,0.545,0.617,0.486,–,–,–,–,–,–,–,–
